Like-named read-outs stand apart in the source and are kept apart here.
What was measured:
[1] = Approximate solubility in selected solvents by visual observation; type: physicochemical; conditions: thermodynamic from solid
Experimental: Solubility testing of compound 2 was carried out by adding 20 μL aliquots (to a maximum of 1 mL) of selected solvents (water, methanol, DCM, and THF) to about 5 mg samples of compound 2 at 25 C with vortexing and sonication; and the approximate solubility determined by visual observation. Similar testing was carried out at 50 C, using about 10 mg samples of compound 2.

[2] = Thermodynamic solubility in FaSSIF; type: physicochemical; conditions: thermodynamic from solid, room temperature, 24 hours shaking
Experimental: After shaking, the samples were centrifuged at 25° C. for 20 minutes at 4000 rpm. Filtrates were prepared using the Whatman Mini-UniPrep Syringeless Filter Device (PTFE filter media with polypropylene housing, pore size 0.45 μm) from Cytiva, and dilutions were performed as required. Quantification of all samples was carried out using an LC-UV system.

[3] = Intestinal stability, mouse intestinal S9; type: in vitro ADME; conditions: intestinal S9 fraction
Experimental: (§1) The stability of compounds 1 and 2, and the control compound 7-hydroxycoumarin, were measured using human, rat, and mouse intestinal S9 fractions (Xenotech). Test compound working solutions were prepared by diluting 5 μL of 10 mM stock solutions in DMSO with 495 μL AN. S9 solutions were prepared by diluting the obtained S9 solutions to 1.0 mg/mL in 100 mM potassium phosphate buffer at pH 7.4 containing 10 mM D-saccharic acid-1,4-lactone. An Apricot automation workstation was used to add 100 μL/well of S9 solution to all reaction plates (Blank, T0, T5, T15, T30, T45, T60 and NCF60); 2 μL/well of compound working solutions were added to all 96-well reaction plates except the blank (T0, T5, T15, T30, T45, T60, and NCF60); 600 μL/well of stop solution (4° C. ACN containing 200 ng/mL tolbutamide and 200 ng/mL labetalol as internal standards) was added to the T0 reaction plate; all plates were pre-incubated at 37° C. for 10 minutes; a cofactor regenerating system (98 μL/well) was added, excluding the NCF60 plate which instead received 98 μL/well of 100 mM potassium phosphate buffer. All plates were then incubated at 37° C. To terminate reactions, 600 μL/well of stop solution was applied at specific end time points. After sealing and a 10-minute shaking, plates were centrifuged at 4000 rpm and 4° C. for 20 minutes. Concurrently, 300 μL/well of HPLC grade water was loaded onto eight new 96-well bioanalysis plates. Post-centrifugation, 100 μL supernatant from each reaction plate was transferred to its corresponding bioanalysis plate, shaken for 10 minutes, and then subjected to LC-MS/MS analysis (Shimadzu LC-40D LC system coupled to a Sciex Qtrap 6500 Plus mass spectrometer, using both positive and negative ion modes).

[4] = Intestinal stability, rat intestinal S9; type: in vitro ADME
Experimental: as §1

[5] = Conjugate formation in intestinal S9 incubations; type: in vitro ADME, human, rat, mouse
Experimental: as §1, with “Concurrently, 300 μL/well of HPLC grade water was loaded onto eight new 96-well bioanalysis plates. Post-centrifugation, 100 μL supernatant from each reaction plate was transferred to its corresponding bioanalysis plate, shaken for 10 minutes, and then subjected to LC-MS/MS analysis (Shimadzu LC-40D LC system coupled to a Sciex Qtrap 6500 Plus mass spectrometer, using both positive and negative ion modes).” left out

[6] = Pharmacokinetics in the rat, solid form (powder in mini-capsules); type: in vivo; conditions: rat, in vivo
log P = type: physicochemical
LMNA^H222P/H222P mouse = assay: Dilated cardiomyopathy model, echocardiography; type: in vivo; conditions: continuous 4 weeks by osmotic pumps
Experimental: (§2) The LMNA^H222P/H222P mouse is a well-established model for studying dilated cardiomyopathy and heart failure, with cardiac dysfunction typically beginning to manifest at around 16 weeks of age. In this study, 16-week-old LMNA^H222P/H222P mice underwent baseline echocardiography prior to treatment. Compound 2 was then administered continuously for 4 weeks using osmotic pumps, with DMSO as the vehicle control. At the end of the treatment period, echocardiography was performed again to assess the impact of compound 2 on cardiac function compared to the control group. […] In a FLNC knockout model using the Myh6-Cre:FLNC^wt/F mouse, 16-week-old mice underwent baseline echocardiography, were treated with compound 2 at 50 mg/Kg/day or vehicle by gavage for 6 weeks, and underwent echocardiography to assess the change in cardiac function. […] The genistein phosphate derivatives of this invention are therefore expected to be useful for the treatment of subjects with dilated cardiomyopathy.

Myh6-Cre:FLNC^wt/F mouse = assay: FLNC knockout model, echocardiography; type: in vivo; conditions: 50 mg/Kg/day by gavage for 6 weeks
Experimental: as §2

mdx mice = assay: mdx mice, blood cytokine analysis; type: in vivo, mouse; conditions: 20 mg/Kg/day by gavage, four-month-old mdx mice
From the text: Dis., 21, 579-589 (2011), “Duchenne muscular dystrophy (DMD) is the most common lethal X-linked recessive disorder, affecting 1 in 3500 live male births. DMD children show early symptoms of muscle degeneration, frequently develop contractures, and lose the ability to walk by 13 years of age. With disease. progression, most patients succumb to death from respiratory failure and cardiac dysfunction in early adulthood. The primary cause of this disease stems from the lack of the protein dystrophin, which is essential for the structural and functional integrity of muscle membrane. Dystrophin absence results in membrane damage, allowing massive infiltration of immune cells, chronic inflammation, necrosis, and severe muscle degeneration . . . . […] The genistein phosphate derivatives of this invention are therefore expected to be useful for the treatment of subjects with Duchenne muscular dystrophy.

[7] = tested on: mice with DSS-induced colitis; assay: DSS-induced colitis in mice; type: in vivo, mouse; conditions: 50 mg/Kg daily by gavage
Experimental: Mice, placed on a soy-free diet for 14 days, were administered 3.5% DSS in their drinking water for 8 days to induce colitis, and either untreated or treated with compound 2 at 50 mg/Kg daily by gavage from day 1 (prevention) or from day 5 (intervention); and monitored for clinical indicators of colitis, including stool consistency, rectal bleeding, and changes in body weight. […] The genistein phosphate derivatives of this invention are therefore expected to be useful for the treatment of subjects with inflammatory bowel disease, ulcerative colitis, and Crohn's disease.

[8] = increases seen in control group
[9] = both prevention and intervention modes

## O=c1c(-c2ccc(O)cc2)coc2cc(OCOP(=O)(O)O)cc(O)c12 [Compound 2, ((5-Hydroxy-3-(4-hydroxyphenyl)-4-oxo-4H-chromen-7-yl)oxy)methyl dihydrogen phosphate]
[1]; 25 °C, organic solvent or mixture, THF, both 25 and 50° C., read-out: solubility in THF
  solubility: 125000 to 250000 µg/mL
[1]; 25 °C, organic solvent or mixture, methanol, both 25 and 50° C., read-out: solubility in methanol
  solubility: > 250000 µg/mL
[1]; organic solvent or mixture, DCM, 25° C., read-out: solubility in DCM
  solubility: < 5000 µg/mL
[1]; water, 25° C., approximate, visual observation, read-out: solubility in water
  solubility: < 5000 µg/mL
[1]; water, 50° C., approximate, visual observation, read-out: solubility in water
  solubility: ~5000 µg/mL
[2]; read-out: Solubility
  solubility at 24 h: 7.82 mM
[2]; read-out: Solubility (μg/mL)
  solubility at 24 h: 2970 µg/mL
[3]; pH 7.4
  half-life at 1 µM: 68.1 min
[3]; pH 7.4, read-out: intrinsic clearance rate
  microsomal CLint at 1 µM: 20.3 µL/min/mg
[4]
  normalized control factor remaining: 68.6%
[4]; intestinal S9 fraction, pH 7.4
  half-life at 1 µM: 48.3 min
[4]; intestinal S9 fraction, pH 7.4, read-out: intrinsic clearance rate
  microsomal CLint at 1 µM: 28.7 µL/min/mg
[5]
  formation of glucuronidation, sulfation, and glutathione conjugates: noticeable absence
[6]; male, SD, po
  half-life: ~120 min
[6]; male, SD, po, 100 mg/kg
  Tmax: ~10 min
[6]; 100 mg/kg
  decline of plasma concentration of dosed compound: slower rapid decline in concentration than for solution dosing
Log P
  logP: 1.59
LMNA^H222P/H222P mouse; vs DMSO control group
  ejection fraction: reduced the decrease
  fractional shortening: reduced the decrease
LMNA^H222P/H222P mouse; [8]
  left ventricular diameter: reduced
  left ventricular volume: reduced
Myh6-Cre:FLNC^wt/F mouse
  contractility (fractional shortening) from baseline: statistically significantly improved
  contractility over vehicle-treated animals: improved
Myh6-Cre:FLNC^wt/F mouse; over vehicle-treated animals
  left ventricular end-diastolic diameter: reduced
  left ventricular end-systolic diameter: reduced
Mdx mice
  Leptin in blood: significantly reduced
  blood cytokines BAFF, BTC, CCL7, CCL11, CSF3, CXCL10, IL-1α, IL-1β, IL-5, IL-10, IL-18, IL-19, IL-2RA, IL-7RA, LIF, MIP-10, MIP2, TNF-α, VEGF: appeared to be reduced
[7]; both prevention (from day 1) and intervention (from day 5) modes, 3.5% DSS
  weight loss: reduced
[7]; [9]
  colon length: improved
  diarrhea: reduced
  histology of the colon: histological improvement
  rectal bleeding: reduced
